For the data set the following is noted: for percent permeation of applied dose beyond the stratum corneum: single dose, four drugs in combination; for time of (initial) peak flux after dose application: base composition Lipoderm ActiveMax, four drugs applied in combination; for mean flux of percutaneous absorption: ex vivo human trunk skin. The procedure:
An evaluation of the percutaneous absorption of ketamine HCL, gabapentin, clonidine HCL, and baclofen in both Lipoderm® and Lipoderm® ActiveMax™ into human trunk skin, in vitro, using the Franz skin finite dose model was performed. The study was designed to evaluate the percutaneous absorption harmacokinetics of ketamine HCL, gabapentin, clonidine HCL, and baclofen. Absorption was measured in human cadaver skin, in vitro, using the finite dose technique and Franz diffusion cells.
Ketamine HCL 5% w/w, gabapentin 10% w/w, clonidine HCL 0.2% w/w and baclofen 2% w/w, in Lipoderm® and Lipoderm® ActiveMax, were tested on triplicate sections from three different cadaver skin donors for the percutaneous absorption of ketamine HCL, gabapentin, clonidine HCL, and baclofen over a 48-hour dose period. At pre-selected times after dose application, the dermal receptor solution was removed in its entirety, replaced with fresh receptor solution, and an aliquot saved for subsequent analysis. In addition, the epidermis and dermis were recovered and evaluated for drug content. The samples were analyzed for ketamine HCL, gabapentin, clonidine HCL, and baclofen content by High Performance Liquid Chromatography (HPLC)/MS.
The model uses ex vivo animal, human cadaver, or surgical skin mounted in specially designed diffusion cells that allow the skin to be maintained at a temperature and humidity that match typical in vivo conditions. (See Franz, T. J., Percutaneous Absorption: On the Relevance of In Vitro Data. J. Invest. Dermatol, 1975, 64:190-195.)
A finite dose (e.g., 4-7 mg/cm^2) of formulation may be applied to the outer surface of the skin and drug absorption may be measured by monitoring its rate of appearance in the receptor solution bathing the inner surface of the skin. Data defining total absorption, rate of absorption, as well as skin content may be accurately determined in this model. The method has historic precedent for accurately predicting in vivo percutaneous absorption kinetics. (See Franz T. J., The Cadaver Skin Absorption Mode and the Drug Development Process. Pharmacopeial Forum 34(5): 1349-1356, 2008; see also Franz T. J., Lehman P. A., and Raney S., Use of Excised Human Skin to Assess the Bioequivalence of Topical Products. Skin Pharmacol Physiol 22:276-286, 2009.)
During the evaluation, percutaneous adsorption was measured using the in vitro cadaver skin finite dose technique. Human cadaver trunk skin without obvious signs of skin disease, obtained within approximately 24 to 48 hours of death, was used in this study. The skin was dermatomed, cryopreserved, sealed in a water-impermeable bag and stored at approximately −70° C. until the day of the experiment. Prior to use, the skin was thawed in approximately 37° C. water, then rinsed in water to remove any adherent blood or other material from the surface.
Skin from three donors was cut into multiple smaller sections large enough to fit on an approximately nominal 0.8 cm^2 Franz diffusion cells. The dermal chamber was filled to capacity with a reservoir solution of phosphate-buffered isotonic saline (PBS), pH 7.4±0.1, with 0.1% Oleth-20 and 0.008% Gentamicin, and the epidermal cell (chimney) left open to ambient laboratory conditions. All cells were mounted in a diffusion apparatus in which the dermal bathing solution was stirred magnetically at approximately 600 RPM and the skin surface temperature maintained at 32.0°±1.0° C.
To assure the integrity of each skin section, its permeability to tritiated water was determined before application of the test products. (See Franz T. J. and Lehman P. A., The Use of Water Permeability as a Means of Validation for Skin Integrity in In Vitro Percutaneous Absorption Studies. Abst. J. Invest. Dermatol 1990, 94:525.) Following a brief (0.5-1 hour) equilibrium period, ^3H2O (NEN, Boston, Mass., sp. Act. ˜0.5 μCi/mL) was layered across the top of the skin so that the entire exposed surface was covered (approximately 250 to 500 μL).

Where [1] appears, read: Lipoderm ActiveMax base, four drugs simultaneously, intact.
Setting [2] is: Lipoderm ActiveMax base, about 1 hour after single application.
Setting [3] is: Lipoderm ActiveMax base, about 3 hours after single application.
Where [4] appears, read: Lipoderm ActiveMax base, about 6 hours after single application.
Setting [5] is: Lipoderm ActiveMax base, about 10 hours after single application.
[6] abbreviates: Lipoderm ActiveMax base, about 18 hours after single application.
[7] abbreviates: Lipoderm ActiveMax base, about 28 hours after single application.
The mark [8] stands for this setting: Lipoderm ActiveMax base, about 40 hours after single application.

Where a name gives a salt, the structure may show the parent alone. Read-outs that look alike come from different tables or passages of the source.

These results are taken from patent publication US9724315B2, “Compounded transdermal pain management” (CMPD Licensing, LLC, priority 2011, dated 2017).

In the case of `NCC(CC(=O)O)c1ccc(Cl)cc1` (stereo not drawn) [baclofen], the “time of (initial) peak flux after dose application” value was “approximately one”. In addition, the “penetration of skin from the base composition” value (“penetration of skin” below) under setting [1] is “penetrate into and through ex vivo human trunk skin”. For the same compound, the “percent permeation of applied dose beyond the stratum corneum” value (“percent permeation” below) (Lipoderm ActiveMax base) is reported as “approximately 5.5%”. For the same compound, under “Lipoderm base”, the “percent permeation” value is on record as “approximately 3.95%”.
In the case of `Clc1cccc(Cl)c1N=C1NCCN1` [clonidine, clonidine HCL], the “mean flux using Lipoderm ActiveMax compared with Lipoderm” value is given as “exceed”; the “minimum mean flux using Lipoderm ActiveMax compared with Lipoderm” value is recorded as “exceeded”; the “penetration of skin” value is “penetrate into and through ex vivo human trunk skin”. The “mean flux of percutaneous absorption” value under setting [2] is recorded as “approximately 0.005 μg/cm^2/hr”. Moreover, under setting [3], the “mean flux of percutaneous absorption” value is “approximately 0.007 μg/cm^2/hr”. The “mean flux of percutaneous absorption” value under setting [4] is on record as “approximately 0.006 μg/cm^2/hr”. In addition, the “mean flux of percutaneous absorption” value under setting [5] is “approximately 0.008 μg/cm^2/hr”. Under setting [6], the “mean flux of percutaneous absorption” value is on record as “approximately 0.008 μg/cm^2/hr”. The “mean flux of percutaneous absorption” value under setting [7] is reported as “approximately 0.011 μg/cm^2/hr”. For the same compound, under setting [8], the “mean flux of percutaneous absorption” value is “approximately 0.011 μg/cm^2/hr”.
`NCC1(CC(=O)O)CCCCC1` [gabapentin]: the “time of (initial) peak flux after dose application” value is on record as “approximately one”. Moreover, under setting [1], the “penetration of skin” value was “penetrate into and through ex vivo human trunk skin”. Besides, the “percent permeation” value (Lipoderm ActiveMax base) is listed as “approximately 2.6%”.
On to `CNC1(c2ccccc2Cl)CCCCC1=O` (stereo not drawn) [ketamine, ketamine HCL], for which the “mean flux of percutaneous absorption” value under setting [2] was “approximately 0.75 μg/cm^2/hr”; the “mean flux of percutaneous absorption” value under setting [3] is reported as “approximately 3.0 μg/cm^2/hr”; the “mean flux of percutaneous absorption” value under setting [4] is “approximately 4.1 μg/cm^2/hr”; the “mean flux of percutaneous absorption” value under setting [5] is “approximately 4.3 μg/cm^2/hr”; the “mean flux of percutaneous absorption” value under setting [6] was “approximately 2.4 μg/cm^2/hr”; the “mean flux of percutaneous absorption” value under setting [7] is “approximately 2.5 μg/cm^2/hr”. The “mean flux of percutaneous absorption” value under setting [8] is “approximately 1.9 μg/cm^2/hr”. Also, the “penetration of skin” value under setting [1] was “penetrate into and through ex vivo human trunk skin”. Moreover, the maximum mean flux entry (Lipoderm ActiveMax base, single application, 48 hours) was “approximately 4.3 μg/cm^2/hr”. In addition, the “percent permeation” value (Lipoderm ActiveMax base) is “approximately 53.4%” and the “percent permeation” value (Lipoderm base) was “approximately 44.8%”. The “mean flux using Lipoderm ActiveMax compared with Lipoderm” value (ketamine: most of the 48 hours, from about 2 hours, clonidine: about two to about 40 hours after application) is “exceed”. The “maximum mean flux using Lipoderm ActiveMax compared with Lipoderm” value (single application, 48 hours) is given as “exceeded”.
